Measurements: patent US9937104B2, “Nanostructured antibacterial and remineralizing dental bonding agents and dental bonding systems” (UNIVERSITY OF MARYLAND, BALTIMORE, priority 2012, dated 2018)
Entries after “also recorded” stand apart in the source; their conditions may differ.

Legend:
[1] = test system: S. mutans (ATCC 700610, UA159); assay: MIC and MBC by serial microdilution; type: cell-based, Streptococcus mutans; settings: for MIC and MBC relative to QADM: compared with QADM
Experimental: MIC and MBC were measured using S. mutans (ATCC 700610, UA159, American Type Culture, Manassas, Va.). S. mutans is a cariogenic, aerotolerant anaerobic bacterium and the primary causative agent of dental caries (Loesche 1986). MIC and MBC were determined via serial microdilution assays (Imazato S et al. 2006; Huang L et al. 2011). Unpolymerized DMAHM or DMADM monomer was dissolved in brain heart infusion (BHI) broth (BD, Franklin Lakes, N.J.) to give a final concentration of 200 mg/mL. From these starting solutions, serial two fold dilutions were made into 1 mL volumes of BHI broth. 15 μL of stock S. mutans was added to 15 mL of BHI broth with 0.2% sucrose and incubated at 37° C. with 5% CO2. Overnight cultures of S. mutans were adjusted to 2×10^6 CFU/mL with BHI broth, and 50 μL of inocula was added to each well of a 96-well plate containing 50 μL of a series of antibacterial monomer dilution broths. BHI broth with 1×10^6 CFU/mL bacteria suspension without antibacterial agent served as negative control. Chlorhexidine diacetate (CHX) (Sigma, St. Louis, Mo.) served as positive control. The previously-synthesized QADM (Antonucci J M et al. 2012; Cheng L et al. 2012a) served as an antibacterial monomer control. After incubation at 37° C. in 5% CO2 for 48 h, the wells were read for turbidity, referenced by the negative and positive control wells. MIC was determined as the endpoint (the well with the lowest antibacterial agent concentration) where no turbidity could be detected with respect to the controls (Huang L et al. 2011). To determine MBC, an aliquot of 50 μL from each well without turbidity was inoculated on BHI agar plates and incubated at 37° C. in 5% CO2 for 48 h. MBC was determined as the lowest concentration of antibacterial agent that produced no colonies on the plate. The tests were performed in triplicate (Huang L et al. 2011).
The use of S. mutans (ATCC 700610, American Type Culture, Manassas, Va.) was approved by the University of Maryland. S. mutans is a cariogenic, aerotolerant anaerobic bacterium and the primary causative agent of dental caries (Deng et al. 2004). MIC and MBC were determined via serial microdilution assays (Imazato et al. 2006; Huang et al. 2011). Unpolymerized DMAHM or DMADDM monomer was dissolved in brain heart infusion (BHI) broth (BD, Franklin Lakes, N.J.) to a concentration of 200 mg/mL. From these starting solutions, serial two fold dilutions were made into 1 mL volumes of BHI broth. […] The wells were read for turbidity after incubation at 37° C. in 5% CO2 for 48 h, referenced by the negative and positive control wells. MIC was defined as the endpoint (the well with the lowest antibacterial agent concentration) where no turbidity could be detected with respect to the controls (Huang et al. 2011). […]

[2] = test system: Human gingival fibroblasts (HGF); type: cell-based; settings: MTT
Experimental: Human gingival fibroblasts (HGF, ScienCell) were cultured in a fibroblast medium (FM). […] Then, HGF were seeded in 96-well plates at 5,000 cells per well. […] After 4 h, the unreacted dye was removed and 150 μL of dimethyl sulfoxide was added. Absorbance was measured via the microplate reader at 492 nm. […] Cells were also live/dead stained (Molecular Probes) and examined with fluorescence microscopy (TE2000-S, Nikon) as shown in FIG. 15B.

[3] = test system: mature biofilms (48 hours); assay: Mature biofilm (48 hours) CFU, antibacterial monomers in primer and adhesive; type: cell-based; settings: 10% mass fraction in primer and adhesive (P&A control)
Experimental: FIG. 29. Effect of antibacterial monomers from Table 1, with chain length (CL) of 3, 6, 9, 12, 16 and 18, on mature biofilms (48 hours). Each monomer was mixed into the primer and adhesive control (P&A control) at 10% mass fraction (mean+−sd; n=6). […] CL=16 reduced the biofilm CFU by 4 orders of magnitude, compared to control.
FIG. 31. Effect of mass fraction of the antibacterial monomer DMAHDM (with chain length of 16) on mature biofilms (48 hours) (mean+−sd; n=6). […] DMAHDM at 10% mass fraction reduced the biofilm CFU by nearly 4 orders of magnitude, compared to control.

| MBC and MIC potency relative to chain length 12 ([1]; compared with chain length 12 monomer) | Compound | MIC and MBC relative to those of DMAHM ([1]; S. mutans, compared with DMAHM) | MIC and MBC relative to QADM ([1]; S. mutans) | Cytotoxicity compared with BisGMA [2] | Reduction of mature biofilm CFU compared to control [3] |
| --- | --- | --- | --- | --- | --- |
|  | C=C(C)C(=O)OCC[N+](C)(C)CCCCCCCCCCCC.[Br-] [DMADDM, dimethylamino dodecyl methacrylate] | more than two orders of magnitude lower; also recorded: three orders of magnitude lower | four orders of magnitude lower | less cytotoxic |  |
| an order of magnitude more potent | C=C(C)C(=O)OCC[N+](C)(C)CCCCCCCCCCCCCCCC.[Br-] [DMAHDM, dimethylamino hexadecyl methacrylate] |  |  |  | 4 orders of magnitude |
|  | C=C(C)C(=O)OCC[N+](C)(C)CCCCCC.[Br-] [DMAHM] |  | a lower concentration, by an order of magnitude |  |  |
|  | C=C(C)C(=O)OCCCCCCCCCCCC[n+]1ccccc1.[Br-] [MDPB, reference compound] |  |  | less cytotoxic |  |
